In patent US20240352021A1 (DANA-FARBER CANCER INSTITUTE, INC., priority 2021, published 2024) one finds IC50 and GI50 data, which are given here for ten compounds.

pIC50: −log10 of the molar value.

As usually defined, the pIC50 is −log10 of the IC50, conventionally taken in molar units. A lower pIC50 goes with a high IC50.

For one assay, the target named is EGFR L858R (Homo sapiens, UniProt P00533, L858R). Nature of the assay: EGFR biochemical assay (headed HTRF-based; method describes Z'-LYTE), L858R. To be noted: Table 4. On the procedure: (§1) To measure the IC50 values of compounds herein against EGFR, a Z′-LYTE assay (ThermoFisher) was used. Briefly, 2.5 μL of different concentrations of the compounds in 4% DMSO were added to 5 μL kinase/peptide mixture in each well of a 384-well plate (Corning Cat. #3676). 2.5 μL of 4× ATP solution (4× ATP, 50 mM HEPES, pH 7.5, 0.01% BRIJ-35, 10 mM MgCl2, 1 mM EGTA) were added to each well. The plate was shaken for 30 seconds, and then incubated at room temperature for 60 minutes. 5 μL of a 1:100000 dilution of Development Reagent A was added to each well. The plate was then incubated for 60 mins at room temperature. 5 μL of the stop reagent was then added. The plate was subsequently read on a fluorescence plate reader, and the emissions ratio was calculated to determine the ratio of Ser/Thr 07 phosphorylated by the reaction. Emissions Ratio═Coumarin Emission (443 nm)/Flourescein Emission (520 nm).
(§2) HTRF-based EGFR assay data are provided below in Table 4.
A general note: Time-resolved FRET reads energy transfer from a long-lived donor to a nearby acceptor.

In a further assay the target is EGFR L858R/T790M (Homo sapiens, UniProt P00533, L858R/T790M). Nature of the assay: EGFR biochemical assay (headed HTRF-based; method describes Z'-LYTE), L858R/T790M. To be noted: Table 4. How it is done: as §1, §2
For assay [1], the target named is EGFR mutant L858R Ba/F3 cells (Homo sapiens, UniProt P00533, L858R, cells depend on it). Briefly: Ba/F3 cell proliferation (Cell Titer Glo), EGFR L858R. To be noted: 72 hours, Table 6, read-out: L858R BaF3. It counts as cell-based, murine. Put shortly:
(§3)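 Retrovirally transduced, puromycin-selected Ba/F3 cells expressing EGFR L858R or L858R/C797S, grown in RPMI + 10% FBS, exposed to compounds for 72 h in triplicate. Viability by Cell Titer Glo ATP luminescence; IC50 from sigmoidal dose-response fit, binned A <0.1, B 0.1–0.5, C 0.5–2.5, D ≥2.5 μM.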

Assay [2] has as its target EGFR L858R/C797S Ba/F3 cells (Homo sapiens, UniProt P00533, C797S/L858R, cells depend on it). Briefly: Ba/F3 cell proliferation (Cell Titer Glo), EGFR L858R/C797S. It counts as cell-based, murine. To be noted: 72 hours, Table 6. Put shortly:
as §3
For orientation: Cellular ATP, detected with luciferase, serves as a proxy for viable cell number.

Sequence of EGFR L858R/T790M (P00533 25-1210 T790M/L858R): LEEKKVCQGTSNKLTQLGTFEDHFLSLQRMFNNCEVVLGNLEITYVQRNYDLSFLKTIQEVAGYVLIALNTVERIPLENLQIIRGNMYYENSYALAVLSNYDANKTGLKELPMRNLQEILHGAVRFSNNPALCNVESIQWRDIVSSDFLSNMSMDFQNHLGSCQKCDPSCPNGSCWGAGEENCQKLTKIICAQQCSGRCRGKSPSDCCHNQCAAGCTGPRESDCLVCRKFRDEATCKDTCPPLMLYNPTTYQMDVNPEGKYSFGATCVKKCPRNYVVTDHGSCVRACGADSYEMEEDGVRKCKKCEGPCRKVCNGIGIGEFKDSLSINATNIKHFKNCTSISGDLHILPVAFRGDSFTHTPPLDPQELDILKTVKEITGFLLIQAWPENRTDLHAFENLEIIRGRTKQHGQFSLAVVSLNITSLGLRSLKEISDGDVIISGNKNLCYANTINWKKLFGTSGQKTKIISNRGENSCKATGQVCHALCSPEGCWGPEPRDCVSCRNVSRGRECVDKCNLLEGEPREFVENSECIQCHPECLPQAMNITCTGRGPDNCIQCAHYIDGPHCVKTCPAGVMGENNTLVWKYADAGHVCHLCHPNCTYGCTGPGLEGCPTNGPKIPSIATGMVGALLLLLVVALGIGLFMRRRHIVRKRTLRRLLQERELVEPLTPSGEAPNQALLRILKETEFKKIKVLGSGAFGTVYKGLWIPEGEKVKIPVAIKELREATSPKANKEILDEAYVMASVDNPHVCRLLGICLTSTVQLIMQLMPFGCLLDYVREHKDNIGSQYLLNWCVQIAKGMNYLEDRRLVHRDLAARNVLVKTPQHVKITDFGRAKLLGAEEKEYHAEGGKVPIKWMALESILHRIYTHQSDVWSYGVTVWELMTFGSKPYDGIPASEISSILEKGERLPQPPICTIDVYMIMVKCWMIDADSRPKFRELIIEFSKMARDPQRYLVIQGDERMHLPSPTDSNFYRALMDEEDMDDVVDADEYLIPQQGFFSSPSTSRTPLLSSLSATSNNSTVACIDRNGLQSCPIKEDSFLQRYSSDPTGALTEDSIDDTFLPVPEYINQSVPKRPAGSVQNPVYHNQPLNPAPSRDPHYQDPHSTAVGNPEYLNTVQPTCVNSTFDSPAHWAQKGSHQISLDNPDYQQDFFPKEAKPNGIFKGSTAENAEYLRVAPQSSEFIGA
Sequence of EGFR L858R/C797S Ba/F3 cells (P00533 whole entry C797S/L858R): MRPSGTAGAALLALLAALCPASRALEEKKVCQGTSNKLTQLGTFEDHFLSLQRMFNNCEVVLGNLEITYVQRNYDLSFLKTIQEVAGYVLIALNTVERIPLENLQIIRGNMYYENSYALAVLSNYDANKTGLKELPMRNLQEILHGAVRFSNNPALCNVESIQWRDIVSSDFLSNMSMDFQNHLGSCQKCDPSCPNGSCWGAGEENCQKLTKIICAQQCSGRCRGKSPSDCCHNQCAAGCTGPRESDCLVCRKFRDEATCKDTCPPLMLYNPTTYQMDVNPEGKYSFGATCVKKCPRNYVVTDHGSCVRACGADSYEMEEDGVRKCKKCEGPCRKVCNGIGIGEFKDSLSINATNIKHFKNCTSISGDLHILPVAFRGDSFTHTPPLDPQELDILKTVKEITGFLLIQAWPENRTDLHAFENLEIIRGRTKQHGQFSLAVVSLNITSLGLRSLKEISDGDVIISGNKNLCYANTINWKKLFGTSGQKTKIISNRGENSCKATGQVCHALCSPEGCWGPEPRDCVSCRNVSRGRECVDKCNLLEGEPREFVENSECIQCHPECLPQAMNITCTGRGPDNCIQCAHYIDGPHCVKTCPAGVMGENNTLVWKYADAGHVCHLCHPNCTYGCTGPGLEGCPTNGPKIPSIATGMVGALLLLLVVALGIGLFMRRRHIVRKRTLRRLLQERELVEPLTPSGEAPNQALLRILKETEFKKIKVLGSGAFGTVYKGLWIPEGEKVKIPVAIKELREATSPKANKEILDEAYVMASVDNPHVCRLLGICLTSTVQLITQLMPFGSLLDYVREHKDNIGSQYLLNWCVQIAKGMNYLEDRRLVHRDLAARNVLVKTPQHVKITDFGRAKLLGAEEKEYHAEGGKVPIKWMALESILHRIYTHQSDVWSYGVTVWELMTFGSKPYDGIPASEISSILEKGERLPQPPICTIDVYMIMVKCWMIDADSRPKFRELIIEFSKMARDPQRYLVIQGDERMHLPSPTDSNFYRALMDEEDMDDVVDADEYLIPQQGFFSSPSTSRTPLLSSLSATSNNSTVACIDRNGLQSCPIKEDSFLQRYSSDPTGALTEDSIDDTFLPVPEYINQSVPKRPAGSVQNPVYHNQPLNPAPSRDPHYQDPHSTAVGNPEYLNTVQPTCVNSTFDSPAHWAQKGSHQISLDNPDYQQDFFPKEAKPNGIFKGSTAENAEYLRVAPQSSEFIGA
Sequence of EGFR mutant L858R Ba/F3 cells (P00533 whole entry L858R): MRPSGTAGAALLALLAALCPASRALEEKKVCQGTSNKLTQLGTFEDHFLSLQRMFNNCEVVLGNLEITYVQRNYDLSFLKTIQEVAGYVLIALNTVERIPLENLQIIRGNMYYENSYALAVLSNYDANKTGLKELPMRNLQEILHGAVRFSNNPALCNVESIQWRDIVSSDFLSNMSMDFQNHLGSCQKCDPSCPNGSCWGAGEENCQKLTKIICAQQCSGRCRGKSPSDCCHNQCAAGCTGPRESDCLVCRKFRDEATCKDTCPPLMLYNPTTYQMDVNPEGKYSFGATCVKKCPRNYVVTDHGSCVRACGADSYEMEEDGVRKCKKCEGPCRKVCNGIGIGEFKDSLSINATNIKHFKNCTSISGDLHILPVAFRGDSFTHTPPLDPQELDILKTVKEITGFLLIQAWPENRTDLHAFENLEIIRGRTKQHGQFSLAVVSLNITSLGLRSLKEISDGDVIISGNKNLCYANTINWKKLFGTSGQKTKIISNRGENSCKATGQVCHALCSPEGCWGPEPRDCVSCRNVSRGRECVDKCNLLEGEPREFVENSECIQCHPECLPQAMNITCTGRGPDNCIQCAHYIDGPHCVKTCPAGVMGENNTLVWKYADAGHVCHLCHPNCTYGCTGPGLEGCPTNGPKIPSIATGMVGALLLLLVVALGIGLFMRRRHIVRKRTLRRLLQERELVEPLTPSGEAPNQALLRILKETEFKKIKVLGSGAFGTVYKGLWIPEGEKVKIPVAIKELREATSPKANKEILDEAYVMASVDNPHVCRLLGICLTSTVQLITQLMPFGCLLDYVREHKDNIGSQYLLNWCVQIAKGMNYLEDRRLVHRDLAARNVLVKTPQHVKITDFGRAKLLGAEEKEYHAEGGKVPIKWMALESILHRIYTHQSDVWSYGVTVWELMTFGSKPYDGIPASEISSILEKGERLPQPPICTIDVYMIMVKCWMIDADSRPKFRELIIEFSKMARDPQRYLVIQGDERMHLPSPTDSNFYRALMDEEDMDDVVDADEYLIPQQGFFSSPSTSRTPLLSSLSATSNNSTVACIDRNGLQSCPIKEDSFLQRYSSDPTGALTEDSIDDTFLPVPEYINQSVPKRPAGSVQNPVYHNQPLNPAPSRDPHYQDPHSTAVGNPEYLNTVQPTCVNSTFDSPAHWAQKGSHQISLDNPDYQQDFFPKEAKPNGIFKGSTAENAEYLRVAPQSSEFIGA
Sequence of EGFR L858R (P00533 25-1210 L858R): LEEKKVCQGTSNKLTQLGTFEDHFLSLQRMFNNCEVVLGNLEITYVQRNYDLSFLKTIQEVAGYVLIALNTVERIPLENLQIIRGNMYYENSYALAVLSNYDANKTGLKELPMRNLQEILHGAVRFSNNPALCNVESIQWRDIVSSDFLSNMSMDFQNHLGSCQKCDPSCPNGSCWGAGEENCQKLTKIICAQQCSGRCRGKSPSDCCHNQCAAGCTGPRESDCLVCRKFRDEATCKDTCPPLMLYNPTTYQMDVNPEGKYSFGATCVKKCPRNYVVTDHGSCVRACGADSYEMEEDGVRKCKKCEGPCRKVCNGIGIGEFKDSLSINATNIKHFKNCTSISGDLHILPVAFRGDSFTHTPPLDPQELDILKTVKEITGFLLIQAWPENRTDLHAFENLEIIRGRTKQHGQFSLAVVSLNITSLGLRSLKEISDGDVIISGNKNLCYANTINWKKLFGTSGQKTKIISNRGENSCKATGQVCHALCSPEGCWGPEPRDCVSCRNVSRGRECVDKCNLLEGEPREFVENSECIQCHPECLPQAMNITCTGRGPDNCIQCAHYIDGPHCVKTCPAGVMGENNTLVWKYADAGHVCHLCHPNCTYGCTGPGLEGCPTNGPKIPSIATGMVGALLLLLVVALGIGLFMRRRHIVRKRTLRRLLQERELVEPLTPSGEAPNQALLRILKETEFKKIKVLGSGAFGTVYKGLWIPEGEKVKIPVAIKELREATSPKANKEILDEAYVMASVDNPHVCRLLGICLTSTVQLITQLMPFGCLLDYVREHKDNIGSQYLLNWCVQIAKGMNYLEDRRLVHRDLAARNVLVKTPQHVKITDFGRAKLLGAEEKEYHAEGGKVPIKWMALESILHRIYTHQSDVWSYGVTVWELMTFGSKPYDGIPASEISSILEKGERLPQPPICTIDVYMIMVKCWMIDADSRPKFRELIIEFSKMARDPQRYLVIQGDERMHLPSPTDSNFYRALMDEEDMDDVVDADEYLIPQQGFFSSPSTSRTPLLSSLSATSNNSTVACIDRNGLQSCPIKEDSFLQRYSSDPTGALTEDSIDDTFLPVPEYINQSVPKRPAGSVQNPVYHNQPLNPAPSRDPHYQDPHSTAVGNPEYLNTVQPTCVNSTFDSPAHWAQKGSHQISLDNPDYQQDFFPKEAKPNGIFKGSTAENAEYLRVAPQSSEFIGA

With `C=CC(=O)N1CC[C@H](N2Cc3cnc(Nc4ccc(CS(=O)(=O)NC)cc4)nc3N(C)C2=O)c2cccc(C)c21` [Compound 145], the pIC50 at EGFR L858R was 8.75; on EGFR L858R/T790M, less than 6.00. Further, the GI50 in assay [1] and in assay [2] was less than 100 nM in each case.

With `C=CC(=O)N1CC[C@H](N2Cc3cnc(Nc4ccc(N5CCN(C)CC5)cc4)nc3N(C)C2=O)C[C@@H]1CO` [Compound 146, 3-[(2R,4S)-2-(hydroxymethyl)-1-prop-2-enoyl-4-piperidyl]-1-methyl-7-[4-(4-methylpiperazin-1-yl)anilino]-4H-pyrimido[4,5-d]pyrimidin-2-one], the pIC50 at EGFR L858R and at EGFR L858R/T790M was less than 6.00 in each case. The GI50 in assay [1] is 500 to 2500 nM; in assay [2], not below 2500 nM.

For the compound `C=CC(=O)N1CCC(N2Cc3cnc(Nc4ccc(N5CCN(C)CC5)cc4)nc3N(C)C2=O)c2cccc(Cl)c21` (stereo not shown) [Compound 147, 3-(8-chloro-1-prop-2-enoyl-3,4-dihydro-2H-quinolin-4-yl)-1-methyl-7-[4-(4-methylpiperazin-1-yl)anilino]-4H-pyrimido[4,5-d]pyrimidin-2-one], the negative logarithm of the IC50 (pIC50) against EGFR L858R and at EGFR L858R/T790M was less than 6.00 throughout. In addition, the GI50 was 500 to 2500 nM in assay [1] and not below 2500 nM in assay [2].

On to `C=CC(=O)N1CCC(N2Cc3cnc(Nc4ccc(N5CCN(C)CC5)cc4)nc3N(C)C2=O)c2cccc(C#N)c21` (stereo not shown) [Compound 150, 4-[1-methyl-7-[4-(4-methylpiperazin-1-yl)anilino]-2-oxo-4H-pyrimido[4,5-d]pyrimidin-S-yl]-1-prop-2-enoyl-3,4-dihydro-2H-quinoline-8-carbonitrile], for which the pIC50 on EGFR L858R and against EGFR L858R/T790M was less than 6.00 throughout. Besides, the GI50 in assay [1] and in assay [2] was 500 to 2500 nM throughout.

With `C=CC(=O)N1CC[C@H](N2Cc3cnc(Nc4ccc(N5CCN(C)CC5)cc4)nc3N(C3CCOC3)C2=O)c2cccc(C)c21` (stereo partly drawn) [Compound 151, 7-[4-(4-methylpiperazin-1-yl)anilino]-S-[(4S)-8-methyl-1-prop-2-enoyl-3,4-dihydro-2H-quinolin-4-yl]-1-tetrahydrofuran-S-yl-4H-pyrimido[4,5-d]pyrimidin-2-one], the pIC50 was 9.07 against EGFR L858R and less than 6.00 on EGFR L858R/T790M. In addition, the GI50 in assay [1] and in assay [2] was less than 100 nM in each case.

In the case of `C=CC(=O)N1CC[C@H](N2Cc3cnc(Nc4ccc(N5CCN(C)CC5)cc4)nc3N(C3CC(O)C3)C2=O)c2cccc(C)c21` (stereo partly drawn) [Compound 152, 1-(3-hydroxycyclobutyl)-7-[4-(4-methylpiperazin-1-yl)anilino]-S-[(4S)-8-methyl-1-prop-2-enoyl-3,4-dihydro-2H-quinolin-4-yl]-4H-pyrimido[4,5-d]pyrimidin-2-one], the pIC50 against EGFR L858R is 8.93; at EGFR L858R/T790M it was less than 6.00. Also, the GI50 in assay [1] and in assay [2] was less than 100 nM throughout.

As to `C=CC(=O)N1CC[C@H](N2Cc3cnc(Nc4ccc(N5CCN(C)CC5)cc4)nc3N(CCO)C2=O)c2cccc(C)c21` [Compound 153, 1-(2-hydroxyethyl)-7-[4-(4-methylpiperazin-1-yl)anilino]-S-[(4S)-8-methyl-1-prop-2-enoyl-3,4-dihydro-2H-quinolin-4-yl]-4H-pyrimido[4,5-d]pyrimidin-2-one], the figures for the pIC50 against EGFR L858R and on EGFR L858R/T790M were 9.06 and less than 6.00, respectively. Further, the GI50 in assay [1] and in assay [2] was less than 100 nM each time.

Take `C=C1CC[C@H]2C[C@@H](N3Cc4cnc(Nc5ccc(N6CCN(C)CC6)cc5)nc4N(C)C3=O)CCN2C1=O` [Compound 157, 1-methyl-S-(7-methylene-6-oxo-2,3,4,8,9,9a-hexahydro-1 H-quinolizin-2-yl)-7-[4-(4-methylpiperazin-1-yl)anilino]-4H-pyrimido[4,5-d]pyrimidin-2-one]: the negative logarithm of the IC50 (pIC50) on EGFR L858R and at EGFR L858R/T790M was less than 6.00 in each case. Besides, the GI50 in assay [1] and in assay [2] was not below 2500 nM in each case.

As for `C=CC(=O)Nc1cccc(N2C(=O)N(C3CCN(C(=O)C=C)c4ccccc43)Cc3cnc(Nc4ccc(N5CCN(C)CC5)cc4)nc32)c1` (stereo not drawn) [Compound 158, N-[3-[7-[4-(4-methylpiperazin-1-yl)anilino]-2-oxo-S-(1-prop-2-enoyl-3,4-dihydro-2H-quinolin-4-yl)-4H-pyrimido[4,5-d]pyrimidin-1-yl]phenyl]prop-2-enamide], the pIC50 against EGFR L858R was 8.97; at EGFR L858R/T790M, 9.15. Also, the GI50 in assay [1] and in assay [2] was less than 100 nM throughout.

For the compound `C=CC(=O)N1CCC(N2Cc3cnc(Nc4ccc(N5CCN(C)CC5)cc4)nc3N(C)C2=O)C(c2ccccc2)C1` (stereo not shown) [Compound 159], the negative-log IC50 (pIC50) against EGFR L858R and against EGFR L858R/T790M was less than 7.00 each time. Moreover, the GI50 in assay [1] was 500 to 2500 nM; in assay [2], not below 2500 nM.
